From ChEMBL document CHEMBL1149074, “Eusynstyelamide, a highly modified dimer peptide from the ascidian Eusynstyela misakiensis” (J Nat Prod, 1994) come the findings set out here.

In this assay the test system is HCT-116. Nature of the assay: Cytotoxicity against human HCT116 cells upto 100 ug/ml after 72 hrs by XTT assay. The format is functional, cell-based. Background: Tetrazolium assays rely on reduction of a dye to a coloured formazan, in cell work by metabolically active cells.

Each structure is given as a SMILES string.

Take `N=C(N)NCCCCNC(=O)C(O)(O)C(c1c[nH]c2cc(Br)ccc12)C(O)(Cc1c[nH]c2cc(Br)ccc12)C(=O)NCCCCNC(=N)N` (stereo unspecified): the Activity entry was “Not toxic”.
